Assay results from the NIST ThermoML archive (doi:10.1021/acs.jced.7b00065).
± gives the expanded uncertainty stated by the source.

Key:
[1] = Molar enthalpy of transition or fusion; conditions: Crystal; DSC
[2] = Crystal; DTA

Molar enthalpy of transition or fusion [1]: 6.91 ± 0.43 kcal/mol
Normal melting temperature [2]: 272.03 ± 1.1 °C
SMILES: Cn1c(=O)c2[nH]cnc2n(C)c1=O [3,7-dihydro-1,3-dimethyl-1H-purine-2,6-dione]
